Assay results from US10449245B2 (priority 2014, dated 2019).
“And” between values parts separate entries of the source, which are not always exact repeats. Equal entries are not always repeated.

Test system: HIV-1
Assay: HIV transcription as cell-associated unspliced HIV-1 RNA in CD4+ T cells (digital droplet PCR), REDUC Part A
Assay type: in vivo, human
Conditions: for CA US HIV RNA: individual subjects 1101, 1102, 1103, 1105, 1106, 1107 = c1-c6; for CA US HIV RNA / CA US HIV RNA, Mean: romidepsin 5 mg/m^2 i.v. days 0, 7, 14; for CA US HIV RNA, Mean: mean of subjects
Procedure: Part A of the clinical study contained three phases. […] Second, a viral reactivation phase of 3 weeks (visit 2 to visit 7) consisting of one cycle of romidepsin infusions at a dosing of 5 mg/m^2 administered intravenously over a 4 hour period. De-escalation down to 2.5 mg/m^2 was planned in case of dose-limiting toxicity was observed. Romidepsin was infused on days 0, 7, and 14. Third, a post-activation phase of ˜9 weeks (visit 8 to visit 11) to assess the effect of romidepsin on the size of latent HIV-1I reservoir.
HIV transcription was measured as copies of cell-associated unspliced HIV-1 RNA/106 CD4+ T cells using digital droplet PCR. CD4+ T-cells were isolated from PBMCs using Miltenyi Biotec negative bead separation kit (CD4 T cell isolation, #130-096-533) as described with LD separation columns, lysed (Lysis buffer from Qiagen DNA/RNA extraction kit), and stored ad −80° C. until extraction of RNA and DNA (Allprep isolation kit, Qiagen). Reverse transcription, amplification and quantitation of cell-associated unspliced HIV RNA from HIV patients was performed as follows. In summary, HIV unspliced RNA was detected on the BioRad QX100 droplet digital platform using a defined primer/probe set and related to total cell input by quantitation of the IPO8 (Importin 8) and TBP (Tata Binding Protein) gene transcription. A mixture of 11.5 μl patient extracted mRNA in nuclease-free dH, 1 μl 10 mM dNTP U1240 (Promega), 0.5 μl 3 μg/μl Random hexamers (Applied Biosystems) and 0.5 μl of 0.5 μg/μl Oligo(dT)12-18 Primer (Invitrogen) was prepared, incubated at 65° C. for 5 min, and then immediately on ice for 5 min. First-strand cDNA production was performed by adding a mixture of 4.0 μl 5× First Strand Buffer (Invitrogen), 1.0 μl 0.1M DTT (Invitrogen), 0.5 μl RNAseOUT RNAse inhibitor (40 U/μl, Invitrogen), 1.0 μl Superscript III Reverse Transcriptase (200 U/μl, Invitrogen) for a total reaction volume of 20 μl and incubating at 42° C. for 45 min, then 80° C. for 15 min in a PCR machine. The reaction was held at 4° C. or on ice until performing the downstream assay. […] To adjust for the total cellular input in each sample, relative copy numbers were normalized to two human endogenous control genes TBP PL (VIC) assay ID: Hs00183533_m1 and IPO8 (FAM) assay ID: Hs00427620_m1 (TaqMan gene expression assay, LifeTechnologies, Denmark). All HIV RT samples were run in six replicates while the reference genes were assayed in duplicate. The PCR reaction mixture was loaded into the BioRad QX-100 emulsification device fractionating each sample into 20,000 nanoliter-sized droplets following the manufacturer's instructions. PCR cycling conditions were as follows: 95° C. for 10 min, followed by 40 cycles of a 30 second denaturation at 95° C. followed by a 59° C. extension for 60 seconds and a final 10 minutes at 98° C. After cycling droplets were subsequently read automatically by the QX100 droplet reader (BioRad) and the data was analyzed with the QuantaSoft™ analysis software (BioRad).

[1] = visit 1 (day −21, pre-treatment)
[2] = visit 2A (day 0, pre-treatment)

C/C=C1\NC(=O)[C@H]2CSSCC/C=C/[C@H](CC(=O)N[C@H](C(C)C)C(=O)N2)OC(=O)[C@H](C(C)C)NC1=O [romidepsin, (1S,4S,7Z,10S,16E,21R)-7-ethylidene-4,21-bis(1-methylethyl)-2-oxa-12,13-dithia-5,8,20,23-tetraazabicyclo[8.7.6]tricos-16-ene-3,6,9,19,22-pentone]
HIV reactivation (5 mg/m^2 romidepsin, patients on cART): successfully able to reactivate HIV in 6 patients | HIV-1 transcription (cell-associated un-spliced HIV-1 RNA), fold range increase from baseline (after third infusion, p=0.03, Wilcoxon): 2.4-5.0 fold | cell-associated un-spliced HIV RNA, change (as a result of romidepsin infusion): significantly increased | CA US HIV RNA [1]: 5.4 HIV RNA copies/10^6 CD4+ T cel and 19.7 HIV RNA copies/10^6 CD4+ T cel and 9.7 HIV RNA copies/10^6 CD4+ T cel and 4.8 HIV RNA copies/10^6 CD4+ T cel and 15.9 HIV RNA copies/10^6 CD4+ T cel and 8.7 HIV RNA copies/10^6 CD4+ T cel | CA US HIV RNA, Mean [1]: 10.7 HIV RNA copies/10^6 CD4+ T cel | CA US HIV RNA [2]: 13.3 HIV RNA copies/10^6 CD4+ T cel and 16.8 HIV RNA copies/10^6 CD4+ T cel and 7.4 HIV RNA copies/10^6 CD4+ T cel and 14.5 HIV RNA copies/10^6 CD4+ T cel and 4.5 HIV RNA copies/10^6 CD4+ T cel | CA US HIV RNA, Mean [2]: 11.3 HIV RNA copies/10^6 CD4+ T cel | CA US HIV RNA (visit 2B (day 0 + 4 h)): 23.0 HIV RNA copies/10^6 CD4+ T cel and 21.7 HIV RNA copies/10^6 CD4+ T cel and 15.7 HIV RNA copies/10^6 CD4+ T cel and 6.2 HIV RNA copies/10^6 CD4+ T cel and 18.7 HIV RNA copies/10^6 CD4+ T cel and 7.6 HIV RNA copies/10^6 CD4+ T cel | CA US HIV RNA, Mean (visit 2B (day 0 + 4 h)): 15.5 HIV RNA copies/10^6 CD4+ T cel | CA US HIV RNA (visit 3 (day 1)): 16.7 HIV RNA copies/10^6 CD4+ T cel and 33.8 HIV RNA copies/10^6 CD4+ T cel and 9.5 HIV RNA copies/10^6 CD4+ T cel and 7.3 HIV RNA copies/10^6 CD4+ T cel and 29.4 HIV RNA copies/10^6 CD4+ T cel and 10.3 HIV RNA copies/10^6 CD4+ T cel | CA US HIV RNA, Mean (visit 3 (day 1)): 17.8 HIV RNA copies/10^6 CD4+ T cel | CA US HIV RNA (visit 4 (day 3)): 26.4 HIV RNA copies/10^6 CD4+ T cel and 36.2 HIV RNA copies/10^6 CD4+ T cel and 7.5 HIV RNA copies/10^6 CD4+ T cel and 6.8 HIV RNA copies/10^6 CD4+ T cel and 12.1 HIV RNA copies/10^6 CD4+ T cel and 6.6 HIV RNA copies/10^6 CD4+ T cel | CA US HIV RNA, Mean (visit 4 (day 3)): 15.9 HIV RNA copies/10^6 CD4+ T cel | CA US HIV RNA (visit 5A (day 7)): 12.5 HIV RNA copies/10^6 CD4+ T cel and 13.7 HIV RNA copies/10^6 CD4+ T cel and 11.3 HIV RNA copies/10^6 CD4+ T cel and 7.6 HIV RNA copies/10^6 CD4+ T cel and 18.9 HIV RNA copies/10^6 CD4+ T cel and 6.6 HIV RNA copies/10^6 CD4+ T cel | CA US HIV RNA, Mean (visit 5A (day 7)): 11.8 HIV RNA copies/10^6 CD4+ T cel | CA US HIV RNA (visit 5B (day 7 + 4 h)): 33.7 HIV RNA copies/10^6 CD4+ T cel and 43.3 HIV RNA copies/10^6 CD4+ T cel and 24.8 HIV RNA copies/10^6 CD4+ T cel and 24.0 HIV RNA copies/10^6 CD4+ T cel and 45.2 HIV RNA copies/10^6 CD4+ T cel | CA US HIV RNA, Mean (visit 5B (day 7 + 4 h)): 34.2 HIV RNA copies/10^6 CD4+ T cel | CA US HIV RNA (visit 6 (day 10)): 21.3 HIV RNA copies/10^6 CD4+ T cel and 29.0 HIV RNA copies/10^6 CD4+ T cel and 10.4 HIV RNA copies/10^6 CD4+ T cel and 9.1 HIV RNA copies/10^6 CD4+ T cel and 14.4 HIV RNA copies/10^6 CD4+ T cel and 7.9 HIV RNA copies/10^6 CD4+ T cel | CA US HIV RNA, Mean (visit 6 (day 10)): 15.3 HIV RNA copies/10^6 CD4+ T cel | CA US HIV RNA (visit 7A (day 14)): 13.3 HIV RNA copies/10^6 CD4+ T cel and 24.2 HIV RNA copies/10^6 CD4+ T cel and 9.9 HIV RNA copies/10^6 CD4+ T cel and 6.0 HIV RNA copies/10^6 CD4+ T cel and 18.1 HIV RNA copies/10^6 CD4+ T cel | CA US HIV RNA, Mean (visit 7A (day 14)): 14.3 HIV RNA copies/10^6 CD4+ T cel | CA US HIV RNA (visit 7B (day 14 + 4 h)): 36.5 HIV RNA copies/10^6 CD4+ T cel and 51.9 HIV RNA copies/10^6 CD4+ T cel and 21.0 HIV RNA copies/10^6 CD4+ T cel and 76.0 HIV RNA copies/10^6 CD4+ T cel and 20.5 HIV RNA copies/10^6 CD4+ T cel | CA US HIV RNA, Mean (visit 7B (day 14 + 4 h)): 41.2 HIV RNA copies/10^6 CD4+ T cel | CA US HIV RNA (visit 8 (day 17)): 17.4 HIV RNA copies/10^6 CD4+ T cel and 17.8 HIV RNA copies/10^6 CD4+ T cel and 4.2 HIV RNA copies/10^6 CD4+ T cel and 14.9 HIV RNA copies/10^6 CD4+ T cel and 8.9 HIV RNA copies/10^6 CD4+ T cel | CA US HIV RNA, Mean (visit 8 (day 17)): 12.7 HIV RNA copies/10^6 CD4+ T cel | CA US HIV RNA (visit 9 (day 21)): 16.4 HIV RNA copies/10^6 CD4+ T cel and 19.0 HIV RNA copies/10^6 CD4+ T cel and 4.6 HIV RNA copies/10^6 CD4+ T cel and 5.2 HIV RNA copies/10^6 CD4+ T cel and 11.1 HIV RNA copies/10^6 CD4+ T cel | CA US HIV RNA, Mean (visit 9 (day 21)): 11.3 HIV RNA copies/10^6 CD4+ T cel | CA US HIV RNA (visit 10 (day 56)): 17.9 HIV RNA copies/10^6 CD4+ T cel and 25.0 HIV RNA copies/10^6 CD4+ T cel and 7.6 HIV RNA copies/10^6 CD4+ T cel and 6.2 HIV RNA copies/10^6 CD4+ T cel and 16.8 HIV RNA copies/10^6 CD4+ T cel and 9.3 HIV RNA copies/10^6 CD4+ T cel | CA US HIV RNA, Mean (visit 10 (day 56)): 13.8 HIV RNA copies/10^6 CD4+ T cel | CA US HIV RNA (visit 11 (day 84)): 22.0 HIV RNA copies/10^6 CD4+ T cel and 32.7 HIV RNA copies/10^6 CD4+ T cel and 11.2 HIV RNA copies/10^6 CD4+ T cel and 8.0 HIV RNA copies/10^6 CD4+ T cel and 35.1 HIV RNA copies/10^6 CD4+ T cel and 12.2 HIV RNA copies/10^6 CD4+ T cel | CA US HIV RNA, Mean (visit 11 (day 84)): 20.2 HIV RNA copies/10^6 CD4+ T cel
